Read-outs that look alike come from different tables or passages of the source.
What was measured:
[1] = system: C57/BL6 mice; format: in vivo, mouse
Procedure: Complexes were immunoprecipitated from 300 μg of total protein lysates from each of the indicated treatment groups. ^32P-labeling of histones H1 was measured using a standard Cdk2 kinase assay. […] IFS in DETA/NO-treated mice compared to control Vehicle-treated mice are shown (*P<0.05; n=4 per group).
IFS in Roscovitine-treated mice compared to control vehicle-treated mice are shown (*P<0.001; n=6 per group). […] Ventricular lysates were probed for the indicated proteins. Mean IFS sizes after 24 hours of reperfusion are shown. (*P<0.05 for Cdk2^+/+ versus Cdk2^−/− IFS; n=5 per group).
Male mice were subjected to myocardial ischemia/reperfusion as previously described (Wang, G., et al. 2005. Am. J. Physiol. Heart Circ. Physiol 288:H1290-H1295). Pentobarbital-anesthetized (50 mg/kg body wt i.p.) mice were intubated for positive pressure ventilation with oxygen-enriched room air during the surgical procedure. After left thoracotomy between ribs three and four, the pericardium was opened and a silk 8-0 suture was looped under the left anterior descending coronary artery 1-3 mm from the tip of the normally positioned left atrium. Ischemia was induced by ligation of the suture (a 1 to 2 mm section of PE-10 tubing was placed between the suture and the artery to prevent damage to the vessel). Rectal temperature was continuously measured and maintained at 36.5-37.5° C. Following a 30-min coronary artery occlusion, the suture was removed to allow coronary reperfusion followed by closure of the chest wall. After 24 hours of coronary artery reperfusion the heart was excised and postmortem perfused as previously described (Wang, G., et al. 2005. Am. J. Physiol. Heart Circ. Physiol 288:H1290-H1295). The infarct region was determined by perfusion with a 1% solution of 2,3,5-triphenyltetrazolium chloride (TTC) in phosphate buffer (pH 7.4, 37° C.). To delineate the risk region, the coronary artery was tied at the site of the previous occlusion and the aortic root perfused with a 1% solution of Evans blue dye. Infarct size was measured by planimetry with NIH Image and expressed as a percentage of the area at risk.
Limitation of IFS by pharmacological delayed preconditioning of the heart was induced with the nitric oxide donor diethylenetriamine/nitric oxide (DETA/NO) as previously reported (Wang, G., et al. 2005. Am. J. Physiol. Heart Circ. Physiol 288:H1290-H1295). After dissecting free the left jugular vein in pentobarbital-anesthetized WT mice, DETA/NO was given in 4 boluses 24-hours prior to 30-min coronary artery occlusion (0.1 mg/kg×4, i.v.).

[2] = molecular target: T1, Cdk2 (Mus musculus, UniProt P97377); experiment: Cdk2 immune complex kinase assay on ventricular lysates of treated mice (histones H1 as substrate); format: in vivo; conditions: DETA/NO 0.1 mg/kg x 4 i.v. 24 hours before I/R, compared to vehicle-treated hearts
T1 construct: Cdk2 complexes were immunoprecipitated from ventricular lysates from each of the indicated treatment groups; from tissue; host or cells: mouse heart ventricle (C57/BL6 mice, treated in vivo)
Procedure: Complexes were immunoprecipitated from 300 μg of total protein lysates from each of the indicated treatment groups. ^32P-labeling of histones H1 was measured using a standard Cdk2 kinase assay.
Ventricular lysates were probed for the indicated proteins.
Western blotting was performed using the identical protein lysates. Antibodies were purchased from Santa Cruz Biotechnology (Santa Cruz). Protein expression was visualized using horseradish peroxidase-conjugated second antibodies and enhanced chemiluminescence reagents (Amersham Biosciences). Nonsaturated autoradiographs were quantitated with SigmaScan.
Cdk2 complexes were immunoprecipitated from ventricular lysates from each of the indicated treatment groups.

Structure (SMILES)	reduction in infarct size compared to vehicle treated mice ([1]; Roscovitine 2.8 mg/gm i.p. two hours prior to ischemia, 30 min occlusion, 24 h reperfusion, vs DMSO vehicle) [%]	infarct size (IFS % of A@R) ([1]; Roscovitine 2.8 mg/gm intraperitoneally two hours prior to ischemia, 30 min LAD occlusion, 24 h reperfusion, mean ± SEM, P<0.001 vs vehicle (DMSO), n=6 per group)	infarct size (IF % of the A@R) ([1]; DETA/NO 0.1 mg/kg x 4 i.v. 24 hours before 30-min coronary occlusion, wildtype mice, mean ± SEM, P<0.05 vs vehicle, n=4 per group)	reduction in infarct size compared to vehicle treated mice ([1]; DETA/NO 0.1 mg/kg x 4 i.v. 24 hours before I/R injury, vs vehicle) [%]	Cdk2 activity in hearts after 30 minutes of ischemia [2]	Cdk2 activity in hearts after 30 minutes of ischemia ([2]; listed as NO donor)
CC[C@H](CO)Nc1nc(NCc2ccccc2)c2ncn(C(C)C)c2n1 [Roscovitine, 6-Benzylamino-2-(R)-[(1-ethyl)-2-hydroxyethylamino]-9-isopropyl-purine]	36.7	34.2±2.6 IFS % of A@R	–	–	–	–
NCCN(CCN)/[N+]([O-])=N/O [DETA/NO, diethylenetriamine/nitric oxide]	–	–	35.0±3.7 IF % of the A@R	32	decreased Cdk2 activity	blocked the upregulation of Cdk2

From patent publication US20070110751A1, “Compositions and methods for reducing infarct size” (priority 2005, published 2007)
